Test results reported in patent US20230027361A1, “METTL3 MODULATORS” (priority 2019, published 2023).
Like-named read-outs stand apart in the source and are kept apart here.

Tests used:
METTL3/METTL14 = METTL3/METTL14 (Homo sapiens, UniProt Q86U44); experiment: METTL3-14 Standard Enzyme Assay (METTL3 biochemical assay)
Procedure: Assays were performed in a 25 μl-volume in 384-well V-bottom polypropylene microplates (Greiner Bio-One, cat. No. 781280) at ambient temperature. Optimized 1× assay buffer was 20 mM HEPES pH 7.5, 50 mM KCl, 250 μM MgCl2, 1 mM DTT, 0.01% Tween, 0.01% BSG, 0.004 U/μl RNAseOUT (cat. No. 10777019, ThermoFisher Scientific, Waltham, Mass.). For compound screening METTL3/METTL14 (final concentration, f.c.=2.5 nM) was added using a Multidrop Combi (ThermoFisher Scientific, Waltham, Mass.) and preincubated for 5 min. Reactions were started by adding 3′ biotinylated RNA ([…]-biotin) (f.c.=100 nM) and 3H-SAM (f.c.=100 nM) substrates. Reactions proceeded for 30 minutes and were quenched with excess non-radioactive SAM (f.c.=15 μM). The reactions were then transferred to streptavidin-coated flashplates and incubated for 2 hours at 25° C. Following two washing cycles with 0.1% Tween-20, the plates were sealed and read on a TopCount (PerkinElmer, Waltham, Mass.) plate-based scintillation counter. For determination of kinetic parameters, reaction times were optimized so that measurements were taken during the initial velocity phase of the reaction.

METTL1/WDR4 = METTL1/WDR4 (Homo sapiens, UniProt Q9UBP6); experiment: METTL1 Assay (METTL1 biochemical assay)
Sequence of METTL1/WDR4 (Q9UBP6 whole entry, species assumed): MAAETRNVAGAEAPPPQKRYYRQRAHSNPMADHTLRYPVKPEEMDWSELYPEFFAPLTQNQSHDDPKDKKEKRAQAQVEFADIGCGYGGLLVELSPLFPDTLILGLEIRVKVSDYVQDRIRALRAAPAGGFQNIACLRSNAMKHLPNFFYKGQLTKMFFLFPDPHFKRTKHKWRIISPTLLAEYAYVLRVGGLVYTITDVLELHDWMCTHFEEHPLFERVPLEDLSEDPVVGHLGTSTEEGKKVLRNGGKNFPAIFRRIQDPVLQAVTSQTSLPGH
Sequence of METTL1/WDR4 (P57081 whole entry partner, species assumed): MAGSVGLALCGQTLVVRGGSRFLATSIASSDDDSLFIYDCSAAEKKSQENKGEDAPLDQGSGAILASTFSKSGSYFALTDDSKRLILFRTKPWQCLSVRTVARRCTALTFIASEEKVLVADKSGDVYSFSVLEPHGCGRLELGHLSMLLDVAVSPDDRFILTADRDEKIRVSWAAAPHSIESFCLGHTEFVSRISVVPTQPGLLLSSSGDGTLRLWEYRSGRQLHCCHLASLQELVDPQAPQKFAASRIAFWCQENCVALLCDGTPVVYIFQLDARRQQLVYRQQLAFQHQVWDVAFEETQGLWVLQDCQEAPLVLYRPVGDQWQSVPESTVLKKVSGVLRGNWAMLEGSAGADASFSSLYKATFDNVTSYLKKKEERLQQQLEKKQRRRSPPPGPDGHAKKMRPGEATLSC
Procedure: Assays were performed in a 25 μl-volume in 384-well V-bottom polypropylene microplates (Greiner Bio-One, cat. No. 781280) at ambient temperature. Optimized 1× assay buffer was 20 mM HEPES pH 7.5, 50 mM KCl, 250 μM MgCl2, 1 mM DTT, 0.01% Tween, 0.01% BSG, 0.004 U/μl RNAseOUT (cat. No. 10777019, ThermoFisher Scientific, Waltham, Mass.). For compound screening METTL1/WDR4 (final concentration, f.c.=6.25 nM) was added using a Multidrop Combi (ThermoFisher Scientific, Waltham, Mass.) and preincubated for 5 min. Reactions were started by adding 3′ biotinylated RNA ([…]-biotin) (f.c.=25 nM) and 3H-SAM (f.c.=60 nM) substrates. Reactions proceeded for 20 minutes and were quenched with excess non-radioactive SAM (f.c.=15 μM). The reactions were then transferred to streptavidin-coated flashplates and incubated for 2 hours at 25° C. Following two washing cycles with 0.1% Tween-20, the plates were sealed and read on a TopCount (PerkinElmer, Waltham, Mass.) plate-based scintillation counter. For determination of kinetic parameters, reaction times were optimized so that measurements were taken during the initial velocity phase of the reaction.

PRMT5-MEP50 = PRMT5-MEP50 (Homo sapiens, UniProt O14744); experiment: PRMT5 Assay (PRMT5 biochemical assay)
Sequence of PRMT5-MEP50 (O14744 whole entry): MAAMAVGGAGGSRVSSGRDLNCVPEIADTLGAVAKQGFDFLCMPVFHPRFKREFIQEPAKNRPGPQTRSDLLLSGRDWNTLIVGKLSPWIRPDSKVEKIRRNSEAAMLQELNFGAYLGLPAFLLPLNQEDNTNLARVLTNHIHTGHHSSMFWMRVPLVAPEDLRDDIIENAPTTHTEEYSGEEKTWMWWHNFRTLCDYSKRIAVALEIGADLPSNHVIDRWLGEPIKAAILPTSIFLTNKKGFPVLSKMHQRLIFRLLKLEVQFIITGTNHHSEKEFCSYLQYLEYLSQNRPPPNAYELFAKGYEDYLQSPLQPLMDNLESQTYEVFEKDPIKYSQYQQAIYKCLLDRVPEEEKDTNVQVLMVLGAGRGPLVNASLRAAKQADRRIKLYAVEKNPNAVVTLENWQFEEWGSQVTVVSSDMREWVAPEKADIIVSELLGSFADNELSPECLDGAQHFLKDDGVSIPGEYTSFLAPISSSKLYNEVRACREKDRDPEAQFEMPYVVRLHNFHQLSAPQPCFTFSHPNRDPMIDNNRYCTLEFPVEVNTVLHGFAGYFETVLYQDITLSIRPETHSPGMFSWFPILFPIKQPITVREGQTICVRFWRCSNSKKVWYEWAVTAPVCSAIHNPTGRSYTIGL
Sequence of PRMT5-MEP50 (Q9BQA1 whole entry partner): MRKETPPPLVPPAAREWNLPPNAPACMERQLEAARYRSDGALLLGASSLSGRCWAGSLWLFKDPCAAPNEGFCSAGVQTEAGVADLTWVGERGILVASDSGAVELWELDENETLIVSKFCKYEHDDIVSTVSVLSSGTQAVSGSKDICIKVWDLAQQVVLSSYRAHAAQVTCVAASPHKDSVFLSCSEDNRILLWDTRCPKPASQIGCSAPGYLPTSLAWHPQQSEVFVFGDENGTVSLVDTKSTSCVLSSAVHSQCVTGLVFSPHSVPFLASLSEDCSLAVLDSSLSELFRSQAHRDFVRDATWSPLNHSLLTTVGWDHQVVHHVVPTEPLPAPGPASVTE
Procedure: Assays were performed in a 25 μl-volume in 384-well V-bottom polypropylene microplates (Greiner Bio-One, cat. No. 781280) at ambient temperature. Optimized 1× assay buffer was 20 mM Tris-HCl pH 8.0, 1 mM DTT, […]. For compound screening PRMT5-MEP50 (final concentration, f.c.=2.5 nM) was added using a Multidrop Combi (ThermoFisher Scientific, Waltham, Mass.) and preincubated for 5 min. Reactions were started by adding 3′ biotinylated histone H4 peptide acetylated on serine 1 (Ac-[…]-Biotin) (f.c.=100 nM) and 3H-SAM (f.c.=250 nM) substrates. Reactions proceeded for 60 minutes and were quenched with excess non-radioactive SAM (f.c.=15 μM). The reactions were then transferred to streptavidin-coated flashplates and incubated for 2 hours at 25° C. Following two washing cycles with 0.1% Tween-20, the plates were sealed and read on a TopCount (PerkinElmer, Waltham, Mass.) plate-based scintillation counter. For determination of kinetic parameters, reaction times were optimized so that measurements were taken during the initial velocity phase of the reaction.

[1] = METTL3 biochemical assay; read-out: METTL3 IC50
[2] = read-out: METTL1 IC50; METTL1 biochemical assay
[3] = PRMT5 biochemical assay; read-out: PRMT5 IC50
[4] = METTL1 biochemical assay; read-out: METTL1 IC50

Sequence of METTL3/METTL14 (Q86U44 whole entry, species assumed): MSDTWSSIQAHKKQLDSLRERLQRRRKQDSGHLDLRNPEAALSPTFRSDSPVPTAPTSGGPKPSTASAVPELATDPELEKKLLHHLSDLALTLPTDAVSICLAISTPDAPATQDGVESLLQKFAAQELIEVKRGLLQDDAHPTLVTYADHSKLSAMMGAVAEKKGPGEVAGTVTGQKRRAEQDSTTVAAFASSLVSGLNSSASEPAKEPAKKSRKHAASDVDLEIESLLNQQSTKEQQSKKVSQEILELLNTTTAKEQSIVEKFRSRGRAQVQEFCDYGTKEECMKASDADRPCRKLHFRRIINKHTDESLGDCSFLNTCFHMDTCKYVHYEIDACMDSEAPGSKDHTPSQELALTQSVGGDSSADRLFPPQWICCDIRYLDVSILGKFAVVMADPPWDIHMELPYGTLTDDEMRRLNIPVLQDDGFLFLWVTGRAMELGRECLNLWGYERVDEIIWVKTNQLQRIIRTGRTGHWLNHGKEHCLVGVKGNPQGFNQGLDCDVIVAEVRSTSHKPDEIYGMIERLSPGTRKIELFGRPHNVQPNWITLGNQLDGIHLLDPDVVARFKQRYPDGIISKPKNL
Sequence of METTL3/METTL14 (Q9HCE5 whole entry partner, species assumed): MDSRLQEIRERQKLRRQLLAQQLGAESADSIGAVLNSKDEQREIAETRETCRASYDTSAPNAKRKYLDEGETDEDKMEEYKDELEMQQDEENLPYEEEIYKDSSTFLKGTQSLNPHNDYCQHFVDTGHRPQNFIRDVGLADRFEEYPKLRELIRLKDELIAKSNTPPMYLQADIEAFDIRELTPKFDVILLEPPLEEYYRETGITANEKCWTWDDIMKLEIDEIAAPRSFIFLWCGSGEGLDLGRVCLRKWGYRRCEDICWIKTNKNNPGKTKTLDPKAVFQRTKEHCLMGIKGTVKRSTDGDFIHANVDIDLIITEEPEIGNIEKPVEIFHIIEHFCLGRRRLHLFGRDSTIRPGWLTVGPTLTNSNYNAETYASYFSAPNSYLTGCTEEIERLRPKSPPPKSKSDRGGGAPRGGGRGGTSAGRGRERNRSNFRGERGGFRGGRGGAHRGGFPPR

Structure (SMILES)	IC50 (METTL3/METTL14; [1]) [nM]	IC50 (METTL1/WDR4; [2]) [nM]	IC50 (PRMT5-MEP50; [3]) [nM]	IC50 (METTL3/METTL14; read-out: METTL3 IC50; METTL3 biochemical assay) [nM]	IC50 (METTL1/WDR4; [4]) [nM]	IC50 (PRMT5-MEP50; read-out: PRMT5 IC50; PRMT5 biochemical assay) [nM]
CNc1ccc2ccc(OC[C@H]3O[C@@H](n4cc(C5CCC(F)(F)CC5)c5c(N)ncnc54)[C@H](O)[C@@H]3O)cc2n1 [I-4]	< 10	> 1000	10 to 100	–	–	–
Cc1cn([C@@H]2O[C@H](COc3ccc4ccc(N)nc4c3)[C@@H](O)[C@H]2O)c2ncnc(N)c12 [I-15]	> 1000	> 1000	100 to 1000	–	–	–
Cc1cn([C@@H]2O[C@H](COc3ccc4ccc(NCC5CC5)nc4c3)[C@@H](O)[C@H]2O)c2ncnc(N)c12 [I-20]	> 1000	> 1000	100 to 1000	–	–	–
CNc1ccc2ccc(OC[C@H]3O[C@@H](n4cc(C)c5c(N)ncnc54)[C@H](O)[C@@H]3O)cc2n1 [I-22]	> 1000	> 1000	100 to 1000	–	–	–
CNc1ccc2ccc(OC[C@H]3O[C@@H](n4cc(Br)c5c(N)ncnc54)C[C@@H]3O)cc2n1 [I-47]	< 10	> 1000	100 to 1000	–	–	–
Nc1ccc2ccc(CC[C@H]3C[C@@H](n4cc([C@@H]5CCOC5)c5c(N)ncnc54)[C@H](O)[C@@H]3O)cc2n1 [I-49]	100 to 1000	> 1000	< 10	–	–	–
Nc1ccc2ccc(CC[C@H]3C[C@@H](n4cc([C@H]5CCOC5)c5c(N)ncnc54)[C@H](O)[C@@H]3O)cc2n1 [I-53]	100 to 1000	> 1000	< 10	–	–	–
Cc1cc2c(N)ncnc2n1[C@@H]1C[C@H](COc2ccc3ccc(N)nc3c2)[C@@H](O)[C@H]1O [I-56]	> 1000	> 1000	< 10	–	–	–
Cc1cc2c(N)ncnc2n1[C@@H]1C[C@H](CCc2ccc3nc(N)ccc3c2)[C@@H](O)[C@H]1O [I-57]	> 1000	> 1000	10 to 100	–	–	–
CNc1ccc2ccc(CC[C@H]3C[C@@H](n4cc(C5CCOCC5)c5c(N)ncnc54)[C@H](O)[C@@H]3O)cc2n1 [I-58]	10 to 100	> 1000	< 10	–	–	–
Cc1cc2c(NCCc3ccccc3)ncnc2n1[C@@H]1C[C@H](CCc2ccc3ccc(N)nc3c2)[C@@H](O)[C@H]1O [I-61]	> 1000	> 1000	< 10	–	–	–
CCCc1cn([C@@H]2C[C@H](CCc3ccc4ccc(N)nc4c3)[C@@H](O)[C@H]2O)c2ncnc(N)c12 [I-62]	100 to 1000	> 1000	< 10	–	–	–
Cn1cc(-c2cn([C@@H]3C[C@H](CCc4ccc5ccc(N)nc5c4)[C@@H](O)[C@H]3O)c3ncnc(N)c23)cn1 [I-63]	–	–	–	100 to 1000	> 1000	< 10
CNc1ccc2cc(CC[C@H]3C[C@@H](n4cc(C)c5c(N)ncnc54)[C@H](O)[C@@H]3O)ccc2n1 [I-64]	100 to 1000	> 1000	10 to 100	–	–	–
Cc1cc2c(N)ncnc2n1[C@@H]1C[C@H](CCc2ccc3ccc(N)nc3c2)[C@@H](O)[C@H]1O [I-65]	> 1000	> 1000	< 10	–	–	–
CNc1ccc2ccc(OC[C@H]3O[C@@H](n4cnc5c(N)ncnc54)[C@H](O)[C@@H]3O)cc2n1 [I-76]	10 to 100	> 1000	< 10	–	–	–
Nc1ncnc2c1ccn2[C@@H]1O[C@H](COc2ccc3ccc(N4CCOCC4)nc3c2)[C@@H](O)[C@H]1O [I-77]	10 to 100	> 1000	100 to 1000	–	–	–
Nc1ccc2ccc(OC[C@H]3O[C@H](n4ccc5c(N)ncnc54)[C@H](O)[C@@H]3O)cc2n1 [I-79]	> 1000	> 1000	100 to 1000	–	–	–
Nc1ccc2ccc(OC[C@H]3O[C@@H](n4ccc5c(N)ncnc54)[C@H](O)[C@@H]3O)cc2n1 [I-80]	10 to 100	> 1000	< 10	–	–	–

Structure (SMILES)	IC50 (METTL3/METTL14; [1]) [nM]	IC50 (METTL1/WDR4; [2]) [nM]	IC50 (PRMT5-MEP50; [3]) [nM]	IC50 (METTL3/METTL14; read-out: METTL3 IC50; METTL3 biochemical assay) [nM]	IC50 (METTL1/WDR4; [4]) [nM]	IC50 (PRMT5-MEP50; read-out: PRMT5 IC50; PRMT5 biochemical assay) [nM]
Nc1ncnc2c1ccn2[C@@H]1C[C@H](CCc2ccc3c(OCC4CC4)ccnc3c2)[C@@H](O)[C@H]1O [I-85]	> 1000	> 1000	< 10	–	–	–
Nc1ncnc2c1ccn2[C@@H]1C[C@H](CCc2ccc3c(OCc4ccccc4)ccnc3c2)[C@@H](O)[C@H]1O [I-86]	> 1000	> 1000	< 10	–	–	–
CNc1ccc2cc(F)c(CC[C@H]3C[C@@H](n4ccc5c(N)ncnc54)[C@H](O)[C@@H]3O)cc2n1 [I-87]	10 to 100	> 1000	< 10	–	–	–
Nc1ncnc2c1ccn2[C@@H]1C[C@H](CCc2ccc3[nH]cnc3c2)[C@@H](O)[C@H]1O [I-88]	> 1000	> 1000	< 10	–	–	–
O[C@@H]1[C@@H](CCc2ccc3[nH]ncc3c2)C[C@@H](n2ccc3c(NCCc4ccccc4)ncnc32)[C@@H]1O [I-89]	> 1000	> 1000	100 to 1000	–	–	–
Nc1ccc2ccc(OC[C@H]3C[C@@H](n4ccc5c(NCCc6ccccc6)ncnc54)[C@H](O)[C@@H]3O)cc2n1 [I-91]	> 1000	–	< 10	–	> 1000	–
Nc1ncnc2c1ccn2[C@@H]1C[C@H](CCc2ccc3[nH]ccc3c2)[C@@H](O)[C@H]1O [I-92]	> 1000	> 1000	100 to 1000	–	–	–
Nc1ncnc2c1ccn2[C@@H]1C[C@H](CCc2ccc3[nH]c(=O)[nH]c3c2)[C@@H](O)[C@H]1O [I-93]	> 1000	> 1000	10 to 100	–	–	–
CN(C[C@H]1C[C@@H](n2ccc3c(N)ncnc32)[C@H](O)[C@@H]1O)c1ccc2ccc(N)nc2c1 [I-94]	> 1000	> 1000	< 10	–	–	–
NC(=O)Nc1cccc(CC[C@H]2C[C@@H](n3ccc4c(N)ncnc43)[C@H](O)[C@@H]2O)c1 [I-95]	> 1000	> 1000	100 to 1000	–	–	–
Nc1ncnc2c1ccn2[C@@H]1C[C@H](CCc2cccc(NC(=O)C3CC3)c2)[C@@H](O)[C@H]1O [I-96]	> 1000	> 1000	100 to 1000	–	–	–
Nc1ccc2cc(CC[C@H]3C[C@@H](n4ccc5c(NCCc6ccccc6)ncnc54)[C@H](O)[C@@H]3O)ccc2n1 [I-97]	> 1000	> 1000	100 to 1000	–	–	–
CNC(=O)Nc1cccc(CC[C@H]2C[C@@H](n3ccc4c(N)ncnc43)[C@H](O)[C@@H]2O)c1 [I-99]	> 1000	> 1000	100 to 1000	–	–	–
Nc1cc2cc(CC[C@H]3C[C@@H](n4ccc5c(N)ncnc54)[C@H](O)[C@@H]3O)ccc2cn1 [I-100]	> 1000	> 1000	10 to 100	–	–	–
Nc1ncnc2c1ccn2[C@@H]1C[C@H](CCc2ccc3ccc(NCC4CC4)nc3c2)[C@@H](O)[C@H]1O [I-132]	–	–	< 10	–	> 1000	–
Nc1ncnc2c1ccn2[C@@H]1C[C@H](CCc2ccc3cccnc3c2)[C@@H](O)[C@H]1O [I-133]	–	–	< 10	–	> 1000	–
Nc1ccc2ccc(CC[C@H]3C[C@@H](n4ccc5c(NCCc6ccccc6)ncnc54)[C@H](O)[C@@H]3O)cc2n1 [I-134]	–	> 1000	< 10	–	–	–
Nc1ncnc2c1ccn2[C@@H]1C[C@H](CCc2ccc3ccccc3c2)[C@@H](O)[C@H]1O [I-136]	–	> 1000	> 1000	–	–	–
Nc1ncnc2c1ccn2[C@@H]1C[C@H](CCc2ccc3cc(Br)cnc3c2)[C@@H](O)[C@H]1O [I-137]	–	> 1000	< 10	–	–	–
